Assay results from patent US11684614B2, “Formulations of hydroxypyridonate actinide/lanthanide decorporation agents” (priority 2017, dated 2023).
Read-outs that look alike come from different tables or passages of the source.

How the values were obtained:
[1] = Plasma protein binding, dog; type: in vitro ADME; settings: tested at 10 μg/ml
Experimental: (§1) Plasma protein binding differed across species; it was greatest in dog (95%), intermediate in human (29%), and lowest in rat (5%) when tested at 10 μg/ml.

[2] = Plasma protein binding, human; type: in vitro ADME; settings: tested at 10 μg/ml
Experimental: as §1

Stability in plasma = type: in vitro ADME
[3] = 7-day oral gavage study in Sprague Dawley rats (SRI No. M801-10); type: in vivo
CYP2C9 = CYP2C9 (Homo sapiens, UniProt P11712); test: CYP inhibition; type: in vitro ADME
[4] = GLP single oral dose pharmacokinetic assessment in beagle dogs; type: in vivo
Experimental: Pharmacokinetic parameters in beagle dogs after a single oral administration of formulated capsules was determined in a GLP study. A validated bioanalytical method was used to determine the plasma concentration in 3 dogs/sex after capsule administration of 37.5, 75, and 150 mg/kg (50, 100, and 200 μmol/kg) of clinically formulated 3,4,3-L1(1,2-HOPO). […] Similarly, mean exposure, based on AUCinf, was 1979±777 hr·ng/ml and 4741 hr·ng/ml for low-dose males and females, respectively; 4317±1721 hr·ng/ml and 8610 hr·ng/ml for mid-dose males and females, respectively; and 12022±5458 hr·ng/ml and 8305±1607 hr·ng/ml for high-dose males and females, respectively. […] The mean t½ was consistently short across dose groups and ranged from 0.5 to 0.9 hr.

[5] = type: in vivo, Swiss-Webster mice
Text: Formulated material was used in the single dose in vivo ADME characterization studies in Sprague Dawley rats and Swiss-Webster mice with 14C-labeled 3,4,3-L1(1,2-HOPO).
Pharmacokinetic parameters and disposition/biodistribution of 3,4,3-L1(1,2-HOPO) were characterized in vivo (with the aid of two 14C labels on the spermine backbone of the parent product) in two non-GLP studies using Swiss-Webster mice and Sprague Dawley rats. The study designs for these two studies are shown in TABLE 5.1 and TABLE 5.2, respectively. Groups of six mice (3 male, 3 female) were given a single dose of [14C]-3,4,3-L1(1,2-HOPO) via iv, ip, or po routes, respectively. An additional group of six mice (3 male, 3 female) were administered the 14C-labeled API with permeability enhancer (10% sodium oleate) by oral gavage (po). Similarly, groups of six rats (3 male, 3 female) were administered a single iv dose of the 14C-labeled API or a single po dose of the 14C-labeled API with 10% sodium oleate. In each of these studies, samples were collected at scheduled time points up to 24 hr post-dose and analyzed for 14C content using liquid scintillation counting. Blood, liver, kidney, feces and urine were collected and analyzed from the mice. Blood, brain, liver, kidney, lungs, spleen, skeletal muscle tissues, gastrointestinal (GI) tract samples, carcasses, feces, and urine were collected and analyzed from the rats.

CYP1A2 = target: T1, CYP1A2 (Homo sapiens, UniProt P05177); test: CYP inhibition; type: in vitro ADME
T1 sequence (P05177 1-516): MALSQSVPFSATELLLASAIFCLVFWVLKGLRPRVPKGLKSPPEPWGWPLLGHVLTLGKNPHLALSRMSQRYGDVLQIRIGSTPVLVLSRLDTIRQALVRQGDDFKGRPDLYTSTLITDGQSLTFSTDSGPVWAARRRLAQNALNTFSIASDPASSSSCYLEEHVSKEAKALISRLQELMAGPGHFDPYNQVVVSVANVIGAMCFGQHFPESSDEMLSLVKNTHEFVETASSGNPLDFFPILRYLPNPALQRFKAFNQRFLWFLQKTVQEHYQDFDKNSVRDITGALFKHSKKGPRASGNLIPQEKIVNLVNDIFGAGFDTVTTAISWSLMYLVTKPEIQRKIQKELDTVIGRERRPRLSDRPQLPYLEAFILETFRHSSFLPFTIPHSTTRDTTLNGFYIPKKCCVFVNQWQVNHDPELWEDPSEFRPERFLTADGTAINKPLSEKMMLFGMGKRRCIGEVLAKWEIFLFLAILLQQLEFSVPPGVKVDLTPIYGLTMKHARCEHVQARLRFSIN

[6] = Single oral dose GLP safety (toxicology) study in beagle dogs; type: in vivo
Experimental: The clinical formulation was tested in a single dose GLP toxicology and cardiovascular safety pharmacology study in beagle dogs.
Based on this study, the MTD in dogs after a single oral administration is considered to be greater than 150 mg/kg.

[7] = Plasma protein binding, rat; type: in vitro ADME; settings: tested at 10 μg/ml
Experimental: as §1

[8] = po, female mice, formulated with sodium oleate
[9] = po, female mice, without sodium oleate
[10] = po, male mice, formulated with sodium oleate
[11] = po, male mice, without sodium oleate
[12] = Day 15, the one high-dose female with renal findings

Chain of CYP2C9 (P11712 whole entry): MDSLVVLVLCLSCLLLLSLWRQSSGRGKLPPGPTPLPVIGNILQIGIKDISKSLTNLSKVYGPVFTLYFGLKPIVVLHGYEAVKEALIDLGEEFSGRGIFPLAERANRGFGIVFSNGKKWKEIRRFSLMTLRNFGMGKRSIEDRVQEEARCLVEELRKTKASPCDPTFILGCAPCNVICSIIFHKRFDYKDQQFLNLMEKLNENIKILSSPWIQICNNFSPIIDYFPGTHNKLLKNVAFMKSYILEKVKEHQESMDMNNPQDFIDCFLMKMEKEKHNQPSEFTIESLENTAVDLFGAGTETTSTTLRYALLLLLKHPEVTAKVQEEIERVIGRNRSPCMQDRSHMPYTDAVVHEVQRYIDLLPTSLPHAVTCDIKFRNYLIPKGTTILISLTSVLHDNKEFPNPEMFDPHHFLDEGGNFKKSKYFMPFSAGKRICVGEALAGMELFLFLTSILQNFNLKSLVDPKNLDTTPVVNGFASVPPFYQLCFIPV

For `O=C(NCCCN(CCCCN(CCCNC(=O)c1cccc(=O)n1O)C(=O)c1cccc(=O)n1O)C(=O)c1cccc(=O)n1O)c1cccc(=O)n1O` [3,4,3-L1(1,2-HOPO)], the Plasma protein binding [1] was 95%, the Plasma protein binding [2] was 29% and the stability in plasma (Stability in plasma) was “stable”. The renal findings ([3]; 7 days of oral gavage) was “no renal findings”, the “soft stools or diarrhea” value ([3]; oral gavage 400-1300 mg/kg (532-1732 μmol/kg) for 7 days) was “not observed” and the “inhibition of CYP2C9 activity” value (CYP2C9) was “did not inhibit”. For the same compound, the “mean AUCinf” value ([4]; high-dose (150 mg/kg) females) was 8305 ± 1607 ng·h/mL, the “mean AUCinf” value ([4]; high-dose (150 mg/kg) males) was 12022 ± 5458 ng·h/mL and the “mean Cmax and AUCinf, females compared with males” value ([4]; low and mid doses) was 1.7- to 2.4 fold. The “mean AUCinf” value ([4]; low-dose (37.5 mg/kg) females) was 4741 ng·h/mL, the “mean AUCinf” value ([4]; low-dose (37.5 mg/kg) males) was 1979 ± 777 ng·h/mL and the “mean AUCinf” value ([4]; mid-dose (75 mg/kg) females) was 8610 ng·h/mL. For the same compound, the “mean AUCinf” value ([4]; mid-dose (75 mg/kg) males) was 4317 ± 1721 ng·h/mL, the “mean t½” value ([4]; oral, across dose groups, dogs) was 30 to 54 min and the Tmax ([4]; single oral capsule dose, 37.5, 75, and 150 mg/kg, dogs) was 36 to 66 min. The “oral bioavailability (F) of radioactive compound” value ([5]; female mice) was 2.6%, the “oral bioavailability (F) of radioactive compound” value ([5]; male mice) was 1.2% and the “enhancement of exposure parameters with sodium oleate” value ([5]; mice) was 2- to 3 fold. The “oral bioavailability improvement with sodium oleate” value ([5]; mice) was “about 2 fold”, the Tmax ([5]; oral dose, rodents (mice)) was ~42 min and the “AUC calculated over 2 hr posttreatment” value [5, 8] was 35.1±18.9 min Pg-eq/ml. The Cmax [5, 8] was 1.4 Pg-eq/ml, the “AUC calculated over 2 hr posttreatment” value [5, 9] was 23.0±15.4 min Pg-eq/ml and the Cmax [5, 9] was 0.55 Pg-eq/ml. The “AUC calculated over 2 hr posttreatment” value [5, 10] was 17.4±6.7 min Pg-eq/ml, the Cmax [5, 10] was 0.93 Pg-eq/ml and the “AUC calculated over 2 hr posttreatment” value [5, 11] was 8.3±6.2 min Pg-eq/ml. The Cmax [5, 11] was 0.32 Pg-eq/ml, the “Cmax improvement with sodium oleate” value ([5]; po, mice) was “approximately 3 fold” and the “inhibition of CYP1A2 activity” value (CYP1A2) was “did not inhibit”. For the same compound, the “time of slight to moderate emesis post-dose” value ([6]; 3,4,3-L1(1,2-HOPO) treatment groups) was < 2 h, the “changes in body weight, food consumption, ophthalmology, cardiovascular assessments, clinical pathology, urinalysis, gross necropsy observations, or organ weights” value ([6]; 37.5, 75, or 150 mg/kg) was “no meaningful changes” and the “increase in BUN relative to pre-test” value [6, 12] was 1.8 fold. For the same compound, the “increase in CR relative to pre-test” value [6, 12] was 1.3 fold, the “serum iron, unsaturated iron binding capacity, total iron binding capacity, magnesium, and ferritin” value ([6]; Days 2 or 15, treated groups compared with controls) was “none of these parameters were meaningfully altered” and the Post-dose emesis ([6]; high dose group) was 3 dogs out of 12 dogs per group. The “Extreme diarrhea, incidence” value ([6]; high-dose (150 mg/kg) males, Day 1) was 33%, the “Slight diarrhea, incidence” value ([6]; high-dose group (150 mg/kg) females, Day 1) was 33% and the “Slight diarrhea, incidence” value ([6]; high-dose group (150 mg/kg) males, Day 1) was 17%. For the same compound, the “Renal findings (tubular casts and dilation, interstitial hemorrhage, hemosiderin pigmentation), incidence” value ([6]; high-dose group (150 mg/kg), Day 15 recovery sacrifice) was 1 of 3, the Post-dose emesis ([6]; low dose group) was 1 dogs out of 12 dogs per group and the Diarrhea ([6]; low-dose group (37.5 mg/kg)) was “absent”. For the same compound, the Post-dose emesis ([6]; mid dose group) was 2 dogs out of 12 dogs per group, the “Slight diarrhea, incidence” value ([6]; mid-dose group (75 mg/kg) females, Day 1) was 67% and the MTD ([6]; single oral administration, dogs) was “greater than 150 mg/kg”. For the same compound, the Plasma protein binding [7] was 5%.
